We go through two compounds from patent publication US20030158540A1, “METHOD FOR DECREASING CATHETER-ASSOCIATED BACTERIURIA” (priority 2002, published 2003).

In test [1] the test system is types and levels of bacteria in the drainage bag. Put plainly: One-time instillation and drainage of irrigation solution into urinary drainage bags of long-term catheterized patients; urine cultures at 24-hour intervals. It is filed as in vivo. As to conditions: for mean values for categories of colony count: score 3 = >100,000, 2 = 10,000 to 100,000, 1 = <10,000; for mean number of different types of organisms identified: about 50 ml one-time dose. From the text:
The type of irrigation solution used constituted the independent variable. The irrigation solutions were sterile hydrogen peroxide and sterile distilled vinegar (as used herein, containing about 5 wt. % acetic acid). […] Hydrogen peroxide decomposes rapidly when exposed to light or organic matter. Vinegar is a weak acetic acid solution derived from alcohol by the action of Acetobacter. Vinegar is distilled to remove color and other impurities, yielding what is referred to as white vinegar.
The dependent variables of the investigation were the types and levels of bacteria in the drainage bag, at twenty-four hour intervals of incubation, during treatment conditions. A certified laboratory was contracted to determine the germicidal values of the solutions tested. After twenty-four hours of incubation at about 37° C. […], bacterial growth was recorded at twenty-four hour intervals. Laboratory protocol for reporting types and number of bacteria provided results by identification of the organism by species present in the specimen.
For the study, a total of fifty-seven subjects were initially identified to participate in the study: fifteen from three hospitals and forty-two from ten skilled nursing facilities. […] Patients who were febrile, acutely ill, receiving antibiotic therapy, or with symptoms of urinary tract infection were excluded based on a review of the patient's chart. Patients with other methods of urinary drainage, such as condom catheter drainage, superpubic catheterization, and intermittent urethral catheterization, were not considered. Moreover, because of the chance of cross-infection, infected and uninfected patients with indwelling urinary catheters who shared the same room or adjacent beds were not considered.
The patients were randomly assigned to three experimental groups: one group was designated a control group whose catheter drainage bags were not treated with an irrigation solution; the drainage bags of the remaining groups were treated with one of the two irrigation solutions investigated. The methods of data collection were verified prior to the commencement of the study by use of a literature review and institutional review board pre approval. All urine collection was made between 5:00 A.M. and 6:30 A.M. The urine specimens were promptly refrigerated and transported to the microbiology laboratory. Organisms and colony counts were identified by standard laboratory methods.
The research approach carried out in the study comprised four primary steps: (1) collection of urine from the catheter drainage bags for baseline cultures; (2) instillation of the irrigation solution into the drainage bags; (3) collection of urine from the drainage bags at 24-hour intervals; and (4) evaluation of the results of bacterial growth at 24-hour intervals. The initial concentration of bacteria in each drainage bag was determined prior to instillation of the irrigation solution. With regard to the patients in the groups whose drainage bags were treated with hydrogen peroxide or distilled vinegar, the drainage bags (approximate filled volume of about 50 to 150 ml) were emptied of any residual urine, after which the distal segment of the Foley catheter was clamped to avoid any possibility of reagent reflux into the patient's bladder.

Test [2] deals with bacterial contamination of the drainage bag. Particulars: 30 ml every eight hours; thirty-one patients; cited from earlier work.
Test [3] concerns catheter-associated urinary tract infections. Particulars: 30 ml in drainage bags every eight hours, cited from earlier work.
Test [4] relates to bacteriuria / bag contamination. Particulars: cited from earlier work.
Test [5] has as its system urinary bag bacterial growth. Particulars: daily decontamination with dilute bleach (5.25%); cited from earlier work.
Setting [6] is: forty-eight hours after instillation.

Consider `OO` [Hydrogen Peroxide, Hydrogen peroxide], for which the “mean values for categories of colony count” value in test [1] (00 h (baseline)) was 6.2; in test [1] (24 h) it was 5.6; in test [1] (48 h), 5.3; in test [1] (72 h), 3.8. For the same compound, the “mean number of different types of organisms identified” value in test [1] (00 h (baseline, before instillation)) is recorded as 2.6; in test [1] (24 h) it was 2.3; in test [1] (48 h) it was 2.1; in test [1] (72 h) it was 1.5. In addition, the “colonies of bacteria compared to the control group (post hoc analysis)” value in test [1] (setting [6]) is “no statistically significant difference”. Further, in test [1] (setting [6]), the “types of organisms compared to the control group (post hoc analysis)” value is “no statistically significant difference”. Besides, the “bacterial contamination of the drainage bag” value in test [2] is “could be eliminated effectively”. The “catheter-associated urinary tract infections” value in test [3] (P<0.05) is reported as “significant reduction”. Moreover, the “bags from which bacteria continued to be isolated” value in test [3] is recorded as “five of thirty”. The rate of bacteriuria entry in test [4] (instillation of H2O2, N=238) is reported as “no reduction”. For the same compound, the “rate of bag contamination” value in test [4] (peroxide group, control group 34%, P≦0.05) is 17%.
Turning to `OCl` [sodium hypochlorite], in test [5], the bag cultures is at most 50 CFU's/ml and the “decrease in urinary bag bacterial growth” value was 76.5%.
